Values after ≈ are worked out from the molar mass of the structure shown. Where two headings read alike, the source gives them in different places.
How the values were obtained:
[1] = test system: Herpes simplex type 1 (HSV-1) strain E-377; assay: CPE-inhibition assay, herpes simplex type 1 strain E-377 in Vero cells; assay type: cell-based, herpes simplex virus type 1
Procedure: (§1) The challenge viruses were propagated and assayed in cells that were pregrown as monolayer cultures in plastic tissue culture flasks and 96-well plates, using cell culture media appropriate for the host cell cultures. The following viruses and host cell cultures were employed:
(§2) green monkey kidney (Vero)
(§3) On the day of use, a weighed sample of each compound to be evaluated was dissolved and diluted in serial 10^0.5 dilutions in the culture medium appropriate for each virus-host cell system.
(§4) Mammalian cells were pregrown as monolayers in wells of COSTAR 96-well tissue culture plates using suitable cell culture media. Stock viruses were pretitered according to the method of Reed and Muench (Amer. J. Hyg. 27:493-497, 1938) and diluted in cell culture medium to yield 32 CCID50 (cell culture infectious dose, 50%) units per 0.1 ml. Antiviral assays were designed to test seven concentrations of each compound, from cytotoxic to noncytotoxic levels, in triplicate against each of the challenge viruses in microtiter plate wells containing suitable cell monolayers. To each of the replicate cell cultures were added 0.1 ml of the test drug solution and 0.1 ml of virus suspension. Cell controls containing medium alone, virus controls containing medium and virus, and drug cytotoxicity controls containing medium and each drug concentration were run simultaneously with the test samples assayed in each experiment. […] The cell monolayers were examined microscopically for virus-induced CPE and for drug cytotoxicity.
(§5) Antiviral activity was determined by calculating the degree of inhibition of virus-induced CPE in drug-treated, virus-infected cell cultures by means of a virus rating (VR). The VR is a standard weighted measurement of antiviral activity taking into account both the degree of CPE inhibition and drug cytotoxicity, and is determined by a modification of the method of Ehrlich et al. (Ann. N.Y. Acad. Sci. 130: 5-16, 1965) as described below. CPE was graded for each individual culture in each microtiter plate well according to the following scale:
(§6) 4=100% of the cells affected by virus;
(§7) 3=75% of the cells affected by virus;
(§8) 2=50% of the cells affected by virus;
(§9) 1=25% of the cells affected by virus;
(§10) 0=No CPE; normal cell monolayer.
(§11) The VR was calculated as 0.1 of the sum of the numerical differences between the recorded CPE grade of each test well and that of the corresponding virus control in the culture plate. Numerical differences between the scores of test wells containing a drug concentration which was partially cytotoxic (p) and their corresponding virus controls were halved.
(§12) The minimum inhibitory drug concentration which reduced the cytopathogenic effect (CPE) by 50% (MIC50) was calculated by using a regression analysis program for semilog curve fitting. A therapeutic index (TI) for each active compound for each susceptible virus was determined by dividing the minimum cytotoxic concentration of the test compound by the MIC50.

[2] = test system: Herpes simplex type 2 (HSV-2) strain MS; assay: CPE-inhibition assay, herpes simplex type 2 strain MS in Vero cells; assay type: cell-based, herpes simplex virus type 2
Procedure: as §1, §2, §3, §4, §5, §6, §7, §8, §9, §10, §11, §12

[3] = Drug cytotoxicity in Vero cells (microscopic, CPE-inhibition assay); assay type: cell-based; settings: african green monkey, minimum drug concentration causing any cytotoxicity, read-out: MTC
Procedure: as §4, §5, §12

[4] = test system: Varicella-Zoster Virus (VZV) clinical isolate DM625; assay: VZV plaque reduction assay; assay type: cell-based; settings: Human alphaherpesvirus 3, 144 h, VZV in HFF; for EC50: minimum concentration required to inhibit plaque formation by 50%, read-out: MIC50
Procedure: The compounds of the invention were evaluated for selective activity against varicella zoster virus (VCV) utilizing a plaque reduction assay procedure. The challenge virus was a clinical isolate designated DM625, obtained from Dr. Richard Whitley of the University of Alabama Hospitals, Birmingham, Ala. The virus had been passaged and titrated in cultures of human foreskin fibroblasts (HFF).
(§13) For the plaque reduction assay, sixth to twelfth passage human foreskin fibroblasts were seeded in wells of 12-well tissue culture plates and incubated at 37° C. in a humidified atmosphere containing 2% CO2 in air. Subconfluent HFF were rinsed with MEM and exposed to 0.5 ml/well of a suspension of VZV diluted in MEM+2% FBS for 2 hours at 37° C. Following the virus adsorption period, the inocula were removed and the infected cell layers were rinsed with MEM. Triplicate VZV-infected cell culture wells were treated with 1.0 ml of each concentration of test compound (in MEM+2% FBS). Six untreated virus-infected cell cultures and triplicate untreated uninfected cell cultures were fed with 1.0 ml of MEM+2% FBS to serve as controls. Wells containing uninfected HFF were treated with each concentration of test compound to monitor the test compound cytotoxicity. The 12-well plates were incubated at 37° C. in the CO2 incubator. At 48 hours post-virus infection (p.i.), fluids in all plate wells were replaced with fresh test compound and/or culture medium.
Six days p.i., the VZV plaques were counted (unstained, low magnification).The effect of each concentration of test compound on plaque formation was determined by comparing the mean number of plaques in the replicate test compound-treated cultures with the mean plaque counts of the untreated virus control cultures.
The MIC50 value is the minimum concentration of test Compound required to inhibit plaque formation by 50%.

[5] = MTT test compound cytotoxicity in human foreskin fibroblasts; assay type: cell-based; settings: hff cells, read-out: MTT assay (Percent of control)
Procedure: as §13
The test compound cytotoxicity control cultures were examined microscopically for gross morphologic changes, then treated with MTT and 30% SDS. The blue color of the MTT formazan was measured spectrophotometrically at 570 nm. Test compound cytotoxicity was determined by comparing the absorbance (O.D.) of each test compound control with the mean O.D. of the cell control cultures and expressed as percent of control.

[6] = test system: Herpes Simplex Virus Type 1; assay: Neutral red dye uptake assay for antiviral activity, HSV-1 in Vero cells; assay type: cell-based; settings: Human alphaherpesvirus 1, HSV-1, Vero, concentration at which 50% CPE would be observed, read-out: MIC50
Procedure: (§14) Vero cell monolayers were harvested by trypsinization. The number of viable cells per ml. was determined by staining an aliquot with trypan blue and counting in a hemocytometer. Cell densities were adjusted in growth medium to contain 4×10^5 cells/mi. 96-well sterile tissue culture plates were seeded with 100 μl/well of the adjusted cell suspensions, i.e., 4×10^4 cells/well. Seeded plates were incubated overnight at 37° C. with CO2.
(§15) After overnight incubation, monolayers were approximately confluent. The growth medium was removed and the monolayers in each cell were infected with 100 μl of virus diluted in maintenance medium to produce approximately 90% cytopathogenic effect (CPE) after 2 to 3 days incubation. The virus was allowed to adsorb for 1 hour at 37° C. with 4 to 6% CO2. Controls for cell growth were overlayed with virus-free maintenance medium. The maintenance medium containing residual virus was removed.
(§16) The test compounds were dissolved and/or diluted in maintenance medium to the concentration desired for testing and were added to the wells of the plate. Aliquots (100 μl ) of each concentration were added to wells in replicate (duplicate or triplicate). Controls for virus activity were overlayed with drug-free maintenance medium. Replicate wells containing only maintenance medium served as controls for background absorbance levels.
After incubation, the medium was removed from all the wells. 100 μl of neutral red solution was added to each well and the plate was incubated at 37° C. without CO2 for 2 hours. After the 2 hour incubation, the excess neutral red solution was removed. […]
The neutral red stain taken up by the viable cells was extracted by adding 100 μl/well of acidified methanol, pH 1.0. […] The amount of neutral red stain extracted into the methanol was quantified by determining the absorbance at a wavelength of 540 nm.
The percent CPE in virus controls was determined by the following formula: [formula]
The percent CPE in cells infected with virus and treated with the test compound was determined by the following formula: [formula] […]

[7] = in vitro; assay type: cell-based, African green monkey; settings: monkey, vero cells
Procedure: as §14, §15, §16
After incubation, the medium was removed from all the wells. 100 μl of neutral red solution was added to each well and the plate was incubated at 37° C. without CO2 for 2 hours. After the 2 hour incubation, the excess neutral red solution was removed. The plates were washed with 100 μl/well of PBS, pH 7.2 and then the PBS was removed.
The neutral red stain taken up by the viable cells was extracted by adding 100 μl/well of acidified methanol, pH 1.0. (The acidified methanol fixed the cells to the well). The plate was allowed to stand at room temperature for at least 15 minutes to allow for maximum extraction. The amount of neutral red stain extracted into the methanol was quantified by determining the absorbance at a wavelength of 540 nm. […]

[8] = test system: HSV-1 (E-377); assay: CPE inhibition assay (MTT), HSV-1 (E-377) in Vero cells; assay type: cell-based, herpes simplex virus type 1; settings: Human alphaherpesvirus 1, inhibited CPE by 50%
Procedure: Vero cells were pregrown as monolayers in wells of COSTAR 96-well tissue culture plates using suitable cell culture media. Stock viruses were pretitered according to the method of Reed and Muench (Amer. J. Hyg. 27 493 (1938)) and diluted in cell culture medium to yield 32 CCID50 (cell culture infectious dose, 50%) units per 0.1 mL. Antiviral assays were designed to test six concentrations of each compound, from cytotoxic to noncytotoxic levels, in triplicate against each of the challenge viruses in microtiter plate wells containing cell monolayers. To each of the replicate cell cultures were added 0.1 mL of the test-compound solution and 0.1 mL of virus suspension. Two compounds were evaluated per plate. The following controls were included:
(1) Cell controls containing cells+medium;
(2) Untreated, virus-infected cell controls;
(3) Test-compound cytotoxicity controls containing uninfected, test-compound treated cells;
(4) Test-compound color controls-test-compound+medium (no cells); and
(5) Reagent (experiment medium) controls-medium only (no cells).
The covered plates were incubated at 37° C. in a humidified atmosphere containing 2% CO2. When cytopathogenic effect (CPE) in untreated virus control wells reached 100%, 20 μL of 3-(4,5-dimethyl-thiazol-2-yl)-2,5-diphenyl tetrazolium bromide (MTT) (dissolved in PBS at 5 mg/mL) was pipetted into each of the plate wells. The plates were incubated at 37° C. for six hours; then 40 μL of 30% SDS (in 0.02N HCl) was added to each well. After overnight incubation at 37° C., the blue color or the MTT formazan was measured spectrophotometrically at 570 nm. The optical density (OD) value of each culture is a function of the amount of formazan produced which is proportional to the number of viable cells. A computer program was utilized to calculate the percent (CPE) reciprocal of % CPE reduction) of the virus-infected wells and % cell viability of the uninfected test-compound control wells.
The IC50 value is the minimum test-compound concentration (μg/mL) that inhibited CPE by 50% calculated by using a regression analysis program for semilog curve fitting. The TC25 value is the minimum test-compound concentration (μg/mL) that reduced cell viability by 25%.

SMILES | inhibition at 0.032 µM [4] [%] | inhibition at 0.1 µM [4] [%] | inhibition at 0.32 µM [4] [%] | inhibition at 1 µM [4] [%] | inhibition at 3.2 µM [4] [%] | EC50 [4] [µg/mL] | viability at 0.1 µM [5] [%] | viability at 0.32 µM [5] [%] | viability at 1 µM [5] [%] | viability at 3.2 µM [5] [%] | also measured
Cc1cn([C@@H]2O[C@H](CO)[C@H]2CO)c(=O)[nH]c1=O [Example 21, 1-([2'R, 3'R, 4'S]-3',4'-Bis(hydroxymethyl)-2'-oxetanyl)5-methyluracil] | 16 | 55 | 97 | 100 | 100 | 0.09 (≈ 0.372 µM) | 93 | 84 | 87 | 87 | VR (Virus Rating) ([1]; HSV-1 (E-377)): 5.9; IC50 ([1]; Human alphaherpesvirus 1, HSV-1 (E-377), minimum drug concentration that inhibited the CPE by 50%, read-out: ID50 (the source's name)): 0.2 µg/mL (≈ 0.826 µM); VR (Virus Rating) ([2]; HSV-2 (MS)): 2.9; IC50 ([2]; Human alphaherpesvirus 2, HSV-2 (MS), minimum drug concentration that inhibited the CPE by 50%, read-out: ID50 (the source's name)): 44.3 µg/mL (≈ 183 µM); MCC ([3]; HSV-1 (E-377)): 320 µg/mL; MCC ([3]; HSV-2 (MS)): > 320 µg/mL
CCc1cn([C@@H]2O[C@H](CO)[C@H]2CO)c(=O)[nH]c1=O [Example 48, 1-([2'R, 3'R, 4'S]-3',4'-Bis(hydroxymethyl)-2'-oxetanyl)-5-ethyluracil] |  |  |  |  |  |  |  |  |  |  | EC50 [6]: 0.06 µg/mL (≈ 0.234 µM); CC50 [7]: 350 µg/mL (≈ 1370 µM)
O=c1[nH]c(=O)n([C@@H]2O[C@H](CO)[C@H]2CO)cc1C=CCl [Example 50, 1-([2'R, 3'R, 4'S]-3',4'-Bis(hydroxymethyl)-2'-oxetanyl)-5-(2-chloro-1-vinyl)uracil] | 90 | 99 | 98 | 99 |  | 0.004 (≈ 0.0139 µM) | 100 | 100 | 100 |  | inhibition at 0.0032 µM ([4]; 0.0032 μM): 7%; inhibition at 0.01 µM ([4]; 0.01 μM): 45%; IC50 [8]: 0.74 µg/mL (≈ 2.56 µM)
CC#Cc1cn([C@@H]2O[C@H](CO)[C@H]2CO)c(=O)[nH]c1=O [Example 68, 1-([2'R, 3'R, 4'S]-3',4'-Bis(hydroxymethyl)-2'-oxetanyl)-5-propynyluracil] | 3 | 38 | 92 | 99 | 100 | 0.045 (≈ 0.169 µM) | 100 | 100 | 98 | 100 | viability at 0.032 µM ([5]; 0.032 μM): 100%
